Experiments:
Assay type in all cases: in vivo
SOD1-G93A model mice [1] = test: Cage experimental test (limb grip strength); conditions: model DLT group 20 mg/kg/day vs model solvent group; age of 14 to 15 weeks; FIG. 3
Text: 3) Cage experimental test: The SOD1-G93A model mice show atrophy of the hind limbs and decreased grip strength of the limbs after the onset of the disease. The handing strength at the limbs of the mice is detected by the cage experimental test.
(§1) 1) Animal grouping: Experimental test mice B6SJL-BTg (SOD1-G93A) 1Gur/J (002726) are purchased from Jackson Laboratory in the United States. A total of 48 SOD1-G93A mice are obtained by the gene identification, and their littermates are used as negative control, and they are randomly divided into 4 groups, which are: (1) a wild-type solvent group (2) a wild-type DLT group (20 mg/kg/day), (3) a model solvent group and (4) a model DLT group (20 mg/kg/day). All mice are administered from the age of 56 days (8 weeks old), and 12 mice in each group are sacrificed from the beginning of administration to the age of 120 days. Histopathological, biochemical and immunological analyses are performed on tissues such as blood, muscles and spinal cords from eyeballs of mice. […]
4) Cage experimental test: From the 8th week, the test is carried out once a week. […] The maximum time for the mice to grip the cage cover is recorded, the maximum time is set to be 90 seconds, and the specific time is recorded when it is less than 90 seconds. […]

SOD1-G93A model mice [2] = test: Detection of onset time and survival cycle; conditions: model DLT group 20 mg/kg/day from the age of 56 days, p<0.05
Text: 4) Detection on onset time and survival cycle: The duration from onset to death of SOD1-G93A model mice is shorter, which is similar to the human ALS. Whether it can effectively delay the onset of the disease and prolong the survival cycle is an important indicator.
as §1, with “days.” for “days. Histopathological, biochemical and immunological analyses are performed on tissues such as blood, muscles and spinal cords from eyeballs of mice.”
5) Detection of onset time and survival cycle: The onset time of transgenic mice is defined as the dates when they first fall from the rotarod apparatus and will not persist for 180 seconds. The dates of deaths of the transgenic mice are defined as the deaths of the mice if the righting reflex cannot be completed within 30 seconds when the mice are lying on their sides, and the days are recorded as the death dates of the mice.

SOD1-G93A model mice [3] = test: Rotarod experimental test; conditions: model DLT group 20 mg/kg/day vs model solvent group; days 101 to 115; FIG. 1
Text: 1) Rotarod experimental test: SOD1-G93A model mice will have motor dysfunction when they are onset, and therefore, the motor coordination and balance function of the forelimb and hind limbs can be assessed by detecting the duration that the mice stay on the rotarod.
as §1, with “days.” for “days. Histopathological, biochemical and immunological analyses are performed on tissues such as blood, muscles and spinal cords from eyeballs of mice.”
2) Rotarod experimental test: From the age of 60 days, the motor function of SOD1-G93A model mice is detected by the rotarod apparatus. […] Motor coordination and balance are evaluated for each mouse by measuring the mouse's total movement time on the rotarod apparatus. Three trials are performed for each mouse, and the longest dwell time before falling is recorded, and the longest dwell time is set at 180 seconds.

SOD1-G93A model mice [4] = test: Gait monitoring experimental test; conditions: model DLT group 20 mg/kg/day vs model solvent group; after the 15th week; FIG. 2
Protocol: 1) Animal grouping: Experimental test mice B6SJL-BTg (SOD1-G93A) 1Gur/J (002726) are purchased from Jackson Laboratory in the United States. A total of 48 SOD1-G93A mice are obtained by the gene identification, and their littermates are used as negative control, and they are randomly divided into 4 groups, which are: (1) a wild-type solvent group (2) a wild-type DLT group (20 mg/kg/day), (3) a model solvent group and (4) a model DLT group (20 mg/kg/day). All mice are administered from the age of 56 days (8 weeks old), and 12 mice in each group are sacrificed from the beginning of administration to the age of 120 days. Histopathological, biochemical and immunological analyses are performed on tissues such as blood, muscles and spinal cords from eyeballs of mice. Compounds are administered to the remaining mice until their deaths, which is used to detect the onset time and survival cycle of mice.
3) Gait monitoring experimental test: In order to obtain footprints, the forefeet and hind feet of SOD1-G93A model mice are painted with red and green non-toxic pigments, respectively. The mice walk along a track with a length of 50 cm and a width of 10 cm, and the gaits of the mice are recorded. […] Footprints of the mice are analyzed, and the average of three result statistics is used in the analysis for recording the gait lengths of the mice.

## Clc1ccc2c(c1)CCc1cccnc1C2=C1CCNCC1 [desloratadine]
SOD1-G93A model mice [1]
  persistence in gripping the cage cover: persist better
SOD1-G93A model mice [2]; model solvent group 97.6±1.473 d, FIG. 4
  onset time (first fall from the rotarod): 103.4 ± 1.705 days
SOD1-G93A model mice [2]; model solvent group 126±1.721 d, FIG. 5
  survival cycle (failure to complete the righting reflex within 30 seconds): 131.6 ± 1.51 days
SOD1-G93A model mice [3]
  time stayed on the rotarod: much longer period of time
SOD1-G93A model mice [4]
  gait length analysis: significantly better

Reference: patent publication US20230086152A1, “USE OF DESLORATADINE AND SALTS THEREOF IN PREPARING DRUG FOR TREATING NEURODEGENERATIVE DISEASE RELATED TO MOTOR DYSFUNCTION” (NANJING UNIVERSITY OF CHINESE MEDICINE, priority 2021, published 2023)
